In US11186573B2, “Inhibitors of ROR gamma” (Vitae Pharmaceuticals, LLC, priority 2017, dated 2021):
“Also recorded” adds a separate entry of the source. Structures can show the parent of a compound that is named as a salt.

Key:
Type in all cases: physicochemical
[1] = Oxidation/degradation during salt screening and salt preparation; details: for degradation during preparation: salt preparation / air-drying
Description: A salt/co-crystal screening was conducted under 127 conditions with 20 salt/co-crystal co-formers and seven solvent systems. For each condition, approximately 20 mg of Compound 1 was dispersed in the selected solvent in a glass vial and then salt/co-crystal co-former was added. Observation of slurries were followed by isolation and analysis of the resulting solids. Even though some crystalline solids were isolated and analyzed by XRPD, discoloration, possibly associated with decomposition was also observed (Table 1). Salt-screening experiments yielding a unique XRPD pattern were analyzed by HPLC-UV and were all determined to be primarily composed of degradants.
With the exception of the HBr salt, salt screening was unsuccessful in identifying further options for new forms of Compound 1 because of degradation. […] For example, solvent systems in which Compound 1 has limited solubility were chosen for formation of the HCl and sulfates salts to limit oxidation, while providing enough solubility to promote conversion to crystalline salts. However, this approach is time consuming and not favorable for large scale manufacturing methods.

[2] = Dynamic Vapor Sorption (DVS) moisture uptake
[3] = Slurry in acetone/water (1:1 v/v), hydrate stability at water activity; details: aw=0.91, acetone/water 1:1 v/v, slurried one week at ambient
From the text: Form D can also isolated from the amorphous bis-hydrogen bromide salt form of Compound 1 in a slurry experiment comprising acetone/water (1:1 v/v). For example, a saturated solution the amorphous bis-hydrogen bromide salt form om acetone/water (1:1 v/v) was slurried for one week at ambient and the solid was harvested to obtain Form D. The water activity (aw) of an equal volume mixture of acetone and water is 0.91. See SSCI internal report, Water Activity Calculations using UNIFAC Calculator, SR-20150515.01, dated Jul. 23, 2015. When solvent-free polymorphs are considered, the relative thermodynamic stability of two polymorphs is determined by the Gibbs free energy difference at a given temperature and pressure. However, when hydrate forms are considered, the water activity in the solvent contributes to the relative physical stability and thus, the resulting form. See Qu H, Louhi-Kultanen M, Kallas J. Solubility and stability of anhydrate/hydrate in solvent mixtures. Int J Pharm. 2006; 321:101-107 and Zhu H, Grant D J W. Influence of water activity in organic solvent+water mixtures on the nature of the crystallizing drug phase. 2. Ampicillin. Int J Pharm. 1996; 139:33-43.

[4] = Solubility in re-slurry solvents

CCS(=O)(=O)c1ccc(CNC(=O)c2cnc3c(c2)CN(C[C@H]2CC[C@H](C(F)(F)F)CC2)[C@H]3C(C)C)nc1 [Compound 1]
susceptibility to oxidation ([1]; particularly in solution): highly susceptible to oxidation

CCS(=O)(=O)c1ccc(CNC(=O)c2cnc3c(c2)CN(C[C@H]2CC[C@H](C(F)(F)F)CC2)[C@H]3C(C)C)nc1 [Form D]
moisture uptake compared with the other solid forms ([2]; DVS isotherm plots, FIG. 16 vs FIGS. 4, 8, 12): significantly less moisture update; also recorded: significantly less than the other forms
stability of the hydrate at water activity [3]: stable
solubility in isopropyl acetate/water mixture compared with heptane/water mixture [4]: greater
solubility in IPAc compared with n-heptane ([4]; re-slurry solvents): slightly higher

adipic acid
composition of isolated salt-screening solid by HPLC-UV ([1]; salt/co-crystal screening of Compound 1): primarily degradants

CCS(=O)(=O)c1ccc(CNC(=O)c2cnc3c(c2)CN(C[C@H]2CC[C@H](C(F)(F)F)CC2)[C@H]3C(C)C)nc1 [bis-hydrogen bromide salt]
weight change (moisture uptake) ([2]; DVS isotherm, FIG. 16): ≤ 5%
degradation during preparation [1]: did not degrade during preparation

Br.CCS(=O)(=O)c1ccc(CNC(=O)c2cnc3c(c2)CN(C[C@H]2CC[C@H](C(F)(F)F)CC2)[C@H]3C(C)C)nc1 [mono-hydrogen bromide salt]
amount of water absorbed relative to the corresponding bis-hydrogen bromide form ([2]; DVS, FIGS. 8 and 16): about twice the amount of water
degradation during preparation [1]: did not degrade during preparation

O=S(=O)(O)O [sulfate]
degradation during preparation [1]: less degradation than others
